Assay results from ChEMBL document CHEMBL2375353, “Efficient induction of apoptosis in HeLa cells by a novel cationic porphycene photosensitizer” (Eur J Med Chem, 2013).
Activity calls are given as the source filed them. The calls are words filed in the database; no cut-off is given here.

How the values were obtained:
[1] = test system: HeLa; experiment: Induction of apoptosis in human HeLa cells assessed as volume reduction at 0.5 uM incubated for 18 hrs prior to red light irradiation measured after 3 hrs by neutral red staining; type: functional, cell-based
[2] = test system: HeLa; experiment: Induction of ROS generation in human HeLa cells assessed as cell survival at 0.5 uM incubated for 18 hrs prior to red light irradiation measured after 24 hrs by MTT assay; type: functional; settings: light or radiation study, read-out: Activity
[3] = test system: HeLa; experiment: Induction of ROS generation in human HeLa cells assessed as cell survival at 0.5 uM incubated for 18 hrs followed by NaN3 addition 2 hrs prior to red light irradiation measured after 24 hrs by MTT assay; type: functional; settings: light or radiation study, read-out: Activity
[4] = test system: HeLa; experiment: Induction of ROS generation in human HeLa cells assessed as singlet oxygen luminescence signal at 5 uM after 18 hrs; type: functional, cell-based
[5] = test system: HeLa; experiment: Induction of apoptosis in human HeLa cells assessed as trypsin-mediated cell detachment at 0.5 to 0.75 uM incubated for 18 hrs prior to red light irradiation by hemocytometer; type: functional, cell-based
[6] = test system: HeLa; experiment: Induction of apoptosis in human HeLa cells assessed as trypsin-mediated cell detachment incubated for 18 hrs prior to red light irradiation measured after 24 hrs by hemocytometer; type: functional, cell-based
[7] = test system: HeLa; experiment: Induction of apoptosis in human HeLa cells incubated for 18 hrs prior to red light irradiation measured after 24 hrs by trypan blue exclusion assay; type: functional, cell-based
[8] = test system: HeLa; experiment: Induction of apoptosis in human HeLa cells incubated for 18 hrs prior to red light irradiation measured after 3 hrs by trypan blue exclusion assay; type: functional, cell-based
[9] = test system: HeLa; experiment: Phototoxicity against human HeLa cells at 0.5 uM incubated for 18 hrs prior to red light irradiation measured after 3 to 24 hrs by trypan blue exclusion assay; type: functional, cell-based
[10] = test system: HeLa; experiment: Phototoxicity against human HeLa cells at 0.75 uM incubated for 18 hrs prior to red light irradiation measured after 3 to 24 hrs by trypan blue exclusion assay; type: functional, cell-based
[11] = test system: HeLa; experiment: Phototoxicity against human HeLa cells at 0.75 uM incubated for 18 hrs prior to 3.6 J/cm'2 red light irradiation by MTT assay; type: functional, cell-based
[12] = test system: HeLa; experiment: Phototoxicity against human HeLa cells assessed as cell viability at > 0.5 uM incubated for 18 hrs prior to 3.6 J/cm'2 red light irradiation by MTT assay; type: functional
[13] = test system: HeLa; experiment: Phototoxicity against human HeLa cells at 1 uM incubated for 18 hrs prior to 2.4 J/cm'2 red light irradiation by MTT assay; type: functional
[14] = test system: HeLa; experiment: Phototoxicity against human HeLa cells at 1 uM incubated for 18 hrs prior to 1.2 J/cm'2 red light irradiation by MTT assay; type: functional, cell-based
[15] = Cytotoxicity against human HeLa cells assessed as cell viability after 18 hrs by MTT assay in presence of 10 % FCS; type: cell-based; settings: read-out: Activity
[16] = test system: HeLa; experiment: Darktoxicity against human HeLa cells at 1 uM after 18 hrs by MTT assay; type: cell-based
[17] = Cytotoxicity against human HeLa cells assessed as cell viability after 18 hrs by MTT assay in presence of 1 % FCS; type: cell-based; settings: read-out: Activity
[18] = test system: HeLa; experiment: Darktoxicity against human HeLa cells at 0.75 uM after 18 hrs by MTT assay; type: cell-based
[19] = Darktoxicity against human HeLa cells assessed as cell survival at > 0.5 microM after 18 hrs by MTT assay; type: cell-based; settings: read-out: Activity
[20] = test system: HeLa; experiment: Drug uptake in human HeLa cells assessed as localization to lysosome at 0.5 uM after 18 hrs by prior to UV irradiation by fluorescence microscopy; type: ADME, cell-based
[21] = test system: HeLa; experiment: Drug uptake in human HeLa cells at 0.75 uM after 18 hrs by fluorescence microscopy; type: ADME, cell-based
[22] = test system: HeLa; experiment: Drug uptake in human HeLa cells assessed as perinuclear localization at 0.5 uM incubated for 18 hrs prior to UV irradiation by fluorescence microscopy; type: ADME, cell-based
[23] = test system: HeLa; experiment: Ratio of drug uptake in human HeLa cells at 0.5 uM after 18 hrs to drug uptake in human HeLa cells at 0.5 uM after 1 hr; type: ADME, cell-based
[24] = test system: HeLa; experiment: Drug uptake in human HeLa cells at 0.5 uM after 18 hrs by flow cytometry; type: ADME, cell-based
[25] = test system: HeLa; experiment: Drug uptake in human HeLa cells at 0.5 uM by flow cytometry; type: ADME, cell-based; settings: TDE = time-dependent effect
[26] = test system: HeLa; experiment: Induction of ROS generation in human HeLa cells assessed as singlet oxygen luminescence signal at 5 uM after 18 hrs in presence of sodium azide; type: functional, cell-based
[27] = test system: HeLa; experiment: Induction of apoptosis in human HeLa cells assessed as changes in microtubules and actin microfilament alteration at 0.75 to 0.5 uM after 18 hrs by immunostaining assay; type: cell-based
[28] = test system: HeLa; experiment: Induction of apoptosis in human HeLa cells assessed as microtubule alteration at 0.75 to 0.5 uM after 18 hrs by […]; type: cell-based
[29] = test system: HeLa; experiment: Induction of apoptosis in human HeLa cells assessed as cytochrome c relocation at 0.75 to 0.5 uM after 18 hrs by immunofluorescence method; type: cell-based
[30] = test system: HeLa; experiment: Induction of apoptosis in human HeLa cells at 0.75 to 0.5 uM after 18 hrs by Hoechst-33258 staining; type: cell-based
[31] = test system: HeLa; experiment: Induction of apoptosis in human HeLa cells at 0.75 to 0.5 uM after 18 hrs by neutral red staining; type: cell-based
[32] = test system: HeLa; experiment: Induction of apoptosis in human HeLa cells assessed as relocalization of proapoptotic Bax protein within mitochondria at 0.75 to 0.5 uM after 18 hrs by indirect immunofluorescence; type: cell-based

For `COCc1ccc(C2=Cc3nc2ccc2[nH]c(cc2-c2ccc(C[n+]4ccccc4)cc2)c2nc(ccc4[nH]c3cc4-c3ccc(C[n+]4ccccc4)cc3)C(c3ccc(C[n+]4ccccc4)cc3)=C2)cc1.[Br-].[Br-].[Br-]`, the Activity [1] was “Active”, the viability at 0.5 µM [2] was 5.2% and the viability at 0.5 µM [3] was 72%. For the same compound, the Activity [4] was “Active”, the Activity [5] was “Active” and the Activity [6] was “Dose-dependent effect”. The Activity [7] was “Active”, the Activity [8] was “Active” and the Activity [9] was “Active”. The Activity [10] was “Active”, the Activity [11] was “Active” and the Activity [12] was less than 10%. The Activity [13] was greater than 50%, the Activity [14] was “Active” and the viability at 18 h [15] was 100%. The Activity [16] was “Toxic”, the viability at 18 h [17] was 98.6% and the Activity [18] was “Toxic”. For the same compound, the viability at 18 h [19] was greater than 90%, the Drug uptake [20] was “Active” and the Drug uptake [21] was “Active”. The Drug uptake [22] was “Active”, the Ratio [23] was 3 and the Drug uptake [24] was “Active”. The Drug uptake [25] was “tde”, the Activity [26] was “inactive” and the Activity [27] was “Non-toxic”. For the same compound, the Activity [28] was “Non-toxic”, the Activity [29] was “Non-toxic” and the Activity [30] was “Non-toxic”. For the same compound, the Activity [31] was “Non-toxic” and the Activity [32] was “Non-toxic”.
